Laboratory results: PubChem BioAssay (NCI)
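Five concentrations, 48 hours, 96-well plates. At the TGI there is no net growth.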

What was measured:
Test in all cases: NCI tumour cell line growth inhibition, 48 h
HS 578T breast = system: HS 578T breast
MCF7 breast = system: MCF7 breast
MDA-MB-231 breast = system: MDA-MB-231 breast
MDA-N = system: MDA-N
NCI/ADR-RES ovarian = system: NCI/ADR-RES ovarian
PC-3 prostate = system: PC-3 prostate

Measured: TGI

O=c1cnn(C/C=C\CO)c(=O)[nH]1
> 100 µM: HS 578T breast | MCF7 breast | MDA-MB-231 breast | MDA-N | NCI/ADR-RES ovarian | PC-3 prostate
